From the supplement of paper PMC11208160

experiment: recombinant barcode read abundance after kanamycin selection (control-corrected) (log10(CPM+1)); higher = more efficient recombination; sequences stand for … in AGTGCAGAGAAAATCGGCCAGTTTTCTCTGCCTGCAGTCCGCATGCCGT…AGATTTATGCAGCGGACTGCCTTTCTCCCAAAGTGATAAACCGGACAGTATCATGGACCGGTTTTCCCGGTAATCCGTATTTGCAAGGTTGGTTTCACT; site = the 11-nt target
Method in brief: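 Two replicates per condition were plated: chloramphenicol/ampicillin LB agar for the control, and chloramphenicol/ampicillin/kanamycin with 0.1 mM IPTG for selection. The pooled E. coli screen behind them paired targets with IS621 bridge RNA target-binding loops. Recombination efficiency is expressed from averaged, control-corrected barcode counts per million at recombinant junctions, as log10(CPM+1).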
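Also: IS621 recombinase and bridge RNA in Escherichia coli cells.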

Row | Sequence | recombinant barcode read abundance (log10)
1 | ATGCCAACTTGGGTTCTAACCTGTTGCCT (site ATGCCAACTAG) | 0.327
2 | ATGCCAACTTGGGTTCTAACCTGTTGCCT (site ATGCCCACTAG) | 0.059
3 | ATGCCAACTTGGGTTCTAACCTGTTGCCT (site ATGCCGACTAG) | 0.204
4 | ATGCCAACTTGGGTTCTAACCTGTTGCCT (site ATGCCTACTAG) | 0.00977
5 | ATGCCCTCTTGGGTTCTAACCTGTTGCCT (site ATGACCTCTAG) | 0.688
6 | ATGCCCTCTTGGGTTCTAACCTGTTGCCT (site ATGCCCTCTAG) | 2.07
7 | ATGCCCTCTTGGGTTCTAACCTGTTGCCT (site ATGGCCTCTAG) | 0.0962
8 | ATGCCCTCTTGGGTTCTAACCTGTTGCCT (site ATGTCCTCTAG) | 0.0521
9 | ATGCCTACTTGGGTTCTAACCTGTTGCCT (site ATGCCAACTAG) | 0.0174
10 | ATGCCTACTTGGGTTCTAACCTGTTGCCT (site ATGCCCACTAG) | 0.0532
11 | ATGCCTACTTGGGTTCTAACCTGTTGCCT (site ATGCCGACTAG) | 0.0715
12 | ATGCCTACTTGGGTTCTAACCTGTTGCCT (site ATGCCTACTAG) | 0.337
13 | ATGCCTCCTTGGGTTCTAACCTGTTGCTT (site ATGCCTCCTAA) | 0.165
14 | ATGCCTCCTTGGGTTCTAACCTGTTGCTT (site GAAGGAGCTCT) | 0.07
15 | ATGCGTTCTTGGGTTCTAACCTGTTGCCT (site AGGTGTTCTAG) | 0.203
16 | ATGCGTTCTTGGGTTCTAACCTGTTGCCT (site ATGCGTTCTAG) | 1.73
17 | ATGCTTGCTTGGGTTCTAACCTGTTGCCA (site ATGCTTGCTTG) | 0.187
18 | ATGCTTGCTTGGGTTCTAACCTGTTGCCA (site TGTGCAACTCA) | 0.299
19 | ATGGATACTTGGGTTCTAACCTGTTGCCT (site ATGGATACTAG) | 2.26
20 | ATGGATACTTGGGTTCTAACCTGTTGCCT (site ATGTACACTAG) | 0.22
21 | ATGGATCCTTGGGTTCTAACCTGTTGCGT (site AGGGATCCTAC) | 0.758
22 | ATGGATCCTTGGGTTCTAACCTGTTGCGT (site ATGGATCCTAC) | 2.77

Row | Sequence | recombinant barcode read abundance (log10)
23 | ATGGCCTCTTGGGTTCTAACCTGTTGCCT (site ATGACCTCTAG) | 0.822
24 | ATGGCCTCTTGGGTTCTAACCTGTTGCCT (site ATGCCCTCTAG) | 0.0852
25 | ATGGCCTCTTGGGTTCTAACCTGTTGCCT (site ATGGCCTCTAG) | 2.2
26 | ATGGCCTCTTGGGTTCTAACCTGTTGCCT (site ATGTCCTCTAG) | 0.0804
27 | ATGGGCCCTTGGGTTCTAACCTGTTGCTA (site ATGGGCCCTAA) | 0.362
28 | ATGGGCCCTTGGGTTCTAACCTGTTGCTA (site ATGGGCCCTCA) | 1.17
29 | ATGGGCCCTTGGGTTCTAACCTGTTGCTA (site ATGGGCCCTGA) | 0.288
30 | ATGGGCCCTTGGGTTCTAACCTGTTGCTA (site ATGGGCCCTTA) | 2.17
31 | ATGGGCCCTTGGGTTCTAACCTGTTGCTT (site ATGGGCCCTAA) | 2.01
32 | ATGGGCCCTTGGGTTCTAACCTGTTGCTT (site ATGGGCCCTCA) | 0.00714
33 | ATGGGCCCTTGGGTTCTAACCTGTTGCTT (site ATGGGCCCTGA) | 0.0928
34 | ATGGGCCCTTGGGTTCTAACCTGTTGCTT (site ATGGGCCCTTA) | 0.243
35 | ATGGTACCTTGGGTTCTAACCTGTTGCTA (site ATGGTACCTTA) | 2.34
36 | ATGGTACCTTGGGTTCTAACCTGTTGCTA (site GATAACGCTAG) | 0.247
37 | ATGGTGACTTGGGTTCTAACCTGTTGCCT (site ATGGTGACTAG) | 1.21
38 | ATGGTGACTTGGGTTCTAACCTGTTGCCT (site ATGGTGCCTAG) | 0.296
39 | ATGGTGACTTGGGTTCTAACCTGTTGCCT (site ATGGTGGCTAG) | 0.0522
40 | ATGGTGACTTGGGTTCTAACCTGTTGCCT (site ATGGTGTCTAG) | 0.0769
41 | ATGTCCTCTTGGGTTCTAACCTGTTGCCA (site ATGTCCTCTTG) | 1.02
42 | ATGTCCTCTTGGGTTCTAACCTGTTGCCA (site GCTCGGGCTCC) | 0
43 | ATGTCTACTTGGGTTCTAACCTGTTGCAG (site ATGTCTACTCT) | 0.673
44 | ATGTCTACTTGGGTTCTAACCTGTTGCAG (site TGCCTATCTAA) | 0.219

Row | Sequence | recombinant barcode read abundance (log10)
45 | ATGTGCACTTGGGTTCTAACCTGTTGCAG (site ATGTGCACTCT) | 2.15
46 | ATGTGCACTTGGGTTCTAACCTGTTGCAG (site CTGTGCACTCG) | 0.63
47 | ATTAAATCTTGGGTTCTAACCTGTTGCCT (site ATTAAATCTAG) | 0.0334
48 | ATTAAATCTTGGGTTCTAACCTGTTGCCT (site ATTAATCCTAG) | 0.485
49 | ATTAACCCTTGGGTTCTAACCTGTTGCCT (site AATAACCCTAG) | 0.0681
50 | ATTAACCCTTGGGTTCTAACCTGTTGCCT (site ACTAACCCTAG) | 0.0136
51 | ATTAACCCTTGGGTTCTAACCTGTTGCCT (site AGTAACCCTAG) | 0.085
52 | ATTAACCCTTGGGTTCTAACCTGTTGCCT (site ATTAACCCTAG) | 1.21
53 | ATTAACTCTTGGGTTCTAACCTGTTGCCT (site ATTAACTCTAG) | 0.944
54 | ATTAACTCTTGGGTTCTAACCTGTTGCCT (site CGAGTGACTCT) | 0.0163
55 | ATTAAGACTTGGGTTCTAACCTGTTGCCT (site ATAAAGACTAG) | 0.423
56 | ATTAAGACTTGGGTTCTAACCTGTTGCCT (site ATCAAGACTAG) | 0.484
57 | ATTAAGACTTGGGTTCTAACCTGTTGCCT (site ATGAAGACTAG) | 0.11
58 | ATTAAGACTTGGGTTCTAACCTGTTGCCT (site ATTAAGACTAG) | 1.35
59 | ATTCGAGCTTGGGTTCTAACCTGTTGCGC (site ATTCGAGCTGC) | 2.03
60 | ATTCGAGCTTGGGTTCTAACCTGTTGCGC (site ATTCGGGCTAC) | 0.0665
61 | ATTCGAGCTTGGGTTCTAACCTGTTGCGG (site ATTCGAGCTCC) | 1.97
62 | ATTCGAGCTTGGGTTCTAACCTGTTGCGG (site GTTCGAGCTCC) | 0.0863
63 | ATTGAGACTTGGGTTCTAACCTGTTGCTT (site ATTGAGACTAA) | 1.33
64 | ATTGAGACTTGGGTTCTAACCTGTTGCTT (site GAGAGTCCTTG) | 0.0837
65 | ATTGGGGCTTGGGTTCTAACCTGTTGCAG (site ATTAGGGCTCG) | 0.266
66 | ATTGGGGCTTGGGTTCTAACCTGTTGCAG (site ATTGGGGCTCT) | 2.38

Row | Sequence | recombinant barcode read abundance (log10)
67 | ATTTAAGCTTGGGTTCTAACCTGTTGCCT (site ATTTAAGCTAG) | 0.498
68 | ATTTAAGCTTGGGTTCTAACCTGTTGCCT (site GAGCGGCCTCT) | 0.0137
69 | ATTTCTTCTTGGGTTCTAACCTGTTGCCT (site ATATCTTCTAG) | 0.113
70 | ATTTCTTCTTGGGTTCTAACCTGTTGCCT (site ATTTCTTCTAG) | 0.0847
71 | ATTTGCACTTGGGTTCTAACCTGTTGCCT (site ATTTGAACTAG) | 0.14
72 | ATTTGCACTTGGGTTCTAACCTGTTGCCT (site ATTTGCACTAG) | 0.184
73 | ATTTGCACTTGGGTTCTAACCTGTTGCCT (site ATTTGGACTAG) | 0.0348
74 | ATTTGCACTTGGGTTCTAACCTGTTGCCT (site ATTTGTACTAG) | 0.0454
75 | ATTTGTACTTGGGTTCTAACCTGTTGCCT (site ATTTGAACTAG) | 0.0288
76 | ATTTGTACTTGGGTTCTAACCTGTTGCCT (site ATTTGCACTAG) | 0.0709
77 | ATTTGTACTTGGGTTCTAACCTGTTGCCT (site ATTTGGACTAG) | 0
78 | ATTTGTACTTGGGTTCTAACCTGTTGCCT (site ATTTGTACTAG) | 0.293
79 | CAAACACCTTGGGTTCTAACCTGTTGCCT (site CAAACAACTAG) | 0.0738
80 | CAAACACCTTGGGTTCTAACCTGTTGCCT (site CAAACACCTAG) | 1.46
81 | CAAACACCTTGGGTTCTAACCTGTTGCCT (site CAAACAGCTAG) | 0.682
82 | CAAACACCTTGGGTTCTAACCTGTTGCCT (site CAAACATCTAG) | 0.287
83 | CAAACTACTTGGGTTCTAACCTGTTGCAC (site CAAACTACTGT) | 0.556
84 | CAAACTACTTGGGTTCTAACCTGTTGCAC (site CAAACTACTTA) | 0.0177
85 | CAAAGGGCTTGGGTTCTAACCTGTTGCAG (site CAAAAGGCTCT) | 1.17
86 | CAAAGGGCTTGGGTTCTAACCTGTTGCAG (site CAAAGGGCTCT) | 2.29
